Measured values published in patent US5397787A, “Vinylene-azaindole derivatives” (Farmitalia Carlo Erba S.R.L., priority 1992, dated 1995).

Target: p45 v-abl tyrosine kinase
Assay: Exogenous Substrate Kinase Assay: p45 v-abl kinase inhibition, (Val5)-Angiotensin II phosphorylation
Assay type: biochemical, Abelson murine leukemia virus
Conditions: (Val^5)-Angiotensin II 2 mM, ATP 50 μM, pH 8.0, 30° C., triplicate determinations
Procedure: The enzyme used in our test was the p45 v-abl tyrosine kinase which represents the catalytic domain of the Abelson tyrosine kinase (isolated from the Abelson murine leukemia virus). The p45 v-abl kinase was produced and isolated as described by Wang et al. in J. Biol. Chem. 260, 64 (1985) and by Ferguson et al. in J. Biol. Chem. 260, 3652 (1985) and in Biochem. J. 257, 321 (1989).
(Val^5)-Angiotensin II phosphorylation was performed by incubation with 40 ng of purified abl-kinase and (γ-^32 P)-ATP, in 50 μl of buffer containing Tris-HCl 25 mM, pH 8.0, MgCl2 10 mM and dithiothreitol 0.1 mM (kinase buffer). The reaction mixture was incubated for the indicated time at 30° C. and the reaction stopped by adding 50 μl of 5% trichloroacetic acid.
After a brief incubation on ice, tubes were centrifuged. The supernatants were spotted on phosphocellulose paper squares (Whatman P-81) and washed extensively in acetic acid. The radioactivity bound to dried phosphocellulose squares was measured in a liquid scintillation counter. IC50 values were calculated from triplicate determinations of each experimental point. Each inhibitor was tested at concentrations ranging from […] in the presence of fixed concentrations of peptide (2 mM) and ATP (50 μM).

N#CC(=Cc1c[nH]c2ncccc12)C(N)=O [2-cyano-3-(7-azaindol-3-yl)acrylamide] was tested, and the IC50 was 4.7 µM.
In the case of O=C1Nc2ccccc2/C1=C/c1c[nH]c2ncccc12 [3-[(7-azaindol-3-yl)methylen]-2-oxindole, (Z)-3-[(7-azaindol-3-yl)methylen]-2-oxindole], the IC50 is reported as 0.05 µM.
